In ChEMBL document CHEMBL1255458, “Worldwide experience with the use of doripenem against extended-spectrum-beta-lactamase-producing and ciprofloxacin-resistant Enterobacteriaceae: analysis of six phase 3 clinical studies” (2010) one finds MIC50, MIC90 and Activity data, which are given here for seven molecules.

Converted amounts (≈) assume the structure as drawn. Some results are limits rather than exact numbers.

The subject of test [1] is Enterobacteriaceae. Kind of test: Antibacterial activity against ciprofloxacin-resistant Enterobacteriaceae clinical isolates by broth microdilution method. Type of test: functional. Background: In broth dilution the organism is exposed to a series of concentrations in liquid medium.
For test [2], the system named is Enterobacteriaceae. The experiment in a line: Antibacterial activity against Enterobacteriaceae by broth microdilution method. Type of test: functional.
Test [3] deals with Enterobacteriaceae. The experiment in a line: Antibacterial activity against extended spectrum beta-lactamase-producing Enterobacteriaceae clinical isolates by broth microdilution method. Type of test: functional.
Test [4] concerns Enterobacteriaceae. The experiment in a line: Antibacterial activity against extended spectrum beta-lactamase-producing Enterobacteriaceae clinical isolates isolated from patient with complicated urinary tract infection assessed as cure rate at test-of-cure visit by mMITT analysis. Type of test: functional, Urine.
For test [5], the system named is Enterobacteriaceae. The experiment in a line: Antibacterial activity against Enterobacteriaceae clinical isolates isolated from patient with complicated urinary tract infection assessed as cure rate at test-of-cure visit. It is filed as functional, Urine.
For test [6], the system named is Enterobacteriaceae. The experiment in a line: Antibacterial activity against ciprofloxacin-resistant Enterobacteriaceae clinical isolates isolated from patient with complicated intra-abdominal infection assessed as cure rate at test-of-cure visit. Type of test: functional.
Test [7] relates to Enterobacteriaceae. The experiment in a line: Antibacterial activity against ciprofloxacin-resistant Enterobacteriaceae clinical isolates isolated from patient with urinary tract infection assessed as cure rate at test-of-cure visit. Type of test: functional, Urine.
Test [8] has as its system Enterobacteriaceae. Kind of test: Antibacterial activity against extended spectrum beta-lactamase-producing Enterobacteriaceae clinical isolates isolated from patient with complicated urinary tract infection assessed as cure rate at test-of-cure visit. It is filed as functional, Urine.
In test [9] the test system is Enterobacteriaceae. Kind of test: Antibacterial activity against Enterobacteriaceae clinical isolates isolated from patient with complicated urinary tract infection assessed as cure rate at test-of-cure visit by mMITT analysis. Type of test: functional, Urine.
The test system of test [10] is Enterobacteriaceae. The experiment in a line: Antibacterial activity against Enterobacteriaceae clinical isolates isolated from patient with complicated intra-abdominal infection assessed as cure rate at test-of-cure visit by mMITT analysis. Type of test: functional.
The test system of test [11] is Enterobacteriaceae. The experiment in a line: Antibacterial activity against extended spectrum beta-lactamase-producing Enterobacteriaceae clinical isolates isolated from patient with urinary tract infection assessed as cure rate at test-of-cure visit. Type of test: functional, Urine.
In test [12] the test system is Enterobacteriaceae. The experiment in a line: Antibacterial activity against Enterobacteriaceae clinical isolates isolated from patient with urinary tract infection assessed as cure rate at test-of-cure visit by mMITT analysis. It is filed as functional, Urine.
The test system of test [13] is Enterobacteriaceae. Kind of test: Antibacterial activity against Enterobacteriaceae clinical isolates isolated from patient with nosocomial pneumonia assessed as cure rate at test-of-cure visit. Type of test: functional.
Test [14] has as its system Enterobacteriaceae. The experiment in a line: Antibacterial activity against Enterobacteriaceae clinical isolates isolated from patient with complicated intra-abdominal infection assessed as cure rate at test-of-cure visit. It is filed as functional.
In test [15] the test system is Enterobacteriaceae. The experiment in a line: Antibacterial activity against extended spectrum beta-lactamase-producing Enterobacteriaceae clinical isolates isolated from patient with nosocomial pneumonia assessed as cure rate at test-of-cure visit by mMITT analysis. Type of test: functional.
The subject of test [16] is Enterobacteriaceae. Kind of test: Antibacterial activity against ciprofloxacin-resistant Enterobacteriaceae clinical isolates isolated from patient with urinary tract infection assessed as cure rate at test-of-cure visit by mMITT analysis. Type of test: functional, Urine.
Test [17] deals with Enterobacteriaceae. Kind of test: Antibacterial activity against extended spectrum beta-lactamase-producing Enterobacteriaceae clinical isolates isolated from patient with urinary tract infection assessed as cure rate at test-of-cure visit by mMITT analysis. It is filed as functional, Urine.
Test [18] concerns Enterobacteriaceae. Kind of test: Antibacterial activity against ciprofloxacin-resistant Enterobacteriaceae clinical isolates isolated from patient with complicated intra-abdominal infection assessed as cure rate at test-of-cure visit by mMITT analysis. Type of test: functional.
Test [19] concerns Enterobacteriaceae. The experiment in a line: Antibacterial activity against extended spectrum beta-lactamase-producing Enterobacteriaceae clinical isolates isolated from patient with complicated intra-abdominal infection assessed as cure rate at test-of-cure visit. It is filed as functional.
Test [20] deals with Enterobacteriaceae. The experiment in a line: Antibacterial activity against ciprofloxacin-resistant Enterobacteriaceae clinical isolates isolated from patient with nosocomial pneumonia assessed as cure rate at test-of-cure visit. Type of test: functional.
Test [21] has as its system Enterobacteriaceae. Kind of test: Antibacterial activity against extended spectrum beta-lactamase-producing Enterobacteriaceae clinical isolates isolated from patient with nosocomial pneumonia assessed as cure rate at test-of-cure visit. It is filed as functional.
In test [22] the test system is Enterobacteriaceae. The experiment in a line: Antibacterial activity against Enterobacteriaceae clinical isolates isolated from patient with nosocomial pneumonia assessed as cure rate at test-of-cure visit by mMITT analysis. Type of test: functional.
Test [23] deals with Enterobacteriaceae. Kind of test: Antibacterial activity against ciprofloxacin-resistant Enterobacteriaceae clinical isolates isolated from patient with complicated urinary tract infection assessed as cure rate at test-of-cure visit by mMITT analysis. Type of test: functional, Urine.
The subject of test [24] is Enterobacteriaceae. Kind of test: Antibacterial activity against extended spectrum beta-lactamase-producing Enterobacteriaceae clinical isolates isolated from patient with complicated intra-abdominal infection assessed as cure rate at test-of-cure visit by mMITT analysis. Type of test: functional.
Another test relates to Klebsiella pneumoniae. Kind of test: Antibacterial activity against […] Klebsiella pneumoniae by broth microdilution method. Type of test: functional.
The test system of test [25] is Enterobacteriaceae. The experiment in a line: Antibacterial activity against Enterobacteriaceae clinical isolates isolated from patient with urinary tract infection assessed as cure rate at test-of-cure visit. Type of test: functional, Urine.
For test [26], the system named is Enterobacteriaceae. Kind of test: Antibacterial activity against ciprofloxacin-resistant Enterobacteriaceae clinical isolates isolated from patient with nosocomial pneumonia assessed as cure rate at test-of-cure visit by mMITT analysis. Type of test: functional.
The test system of test [27] is Enterobacteriaceae. Kind of test: Antibacterial activity against ciprofloxacin-resistant Enterobacteriaceae clinical isolates isolated from patient with complicated urinary tract infection assessed as cure rate at test-of-cure visit. It is filed as functional, Urine.

Turning to `NCC[C@H](O)C(=O)N[C@@H]1C[C@H](N)[C@@H](O[C@H]2O[C@H](CN)[C@@H](O)[C@H](O)[C@H]2O)[C@H](O)[C@H]1O[C@H]1O[C@H](CO)[C@@H](O)[C@H](N)[C@H]1O` [AMIKACIN], the figures for the MIC50 in the test on Enterobacteriaceae [1], in the test with Enterobacteriaceae [2] and in the test with Enterobacteriaceae [3] were 4 µg/mL (≈ 6.83 µM), 2 µg/mL (≈ 3.42 µM) and 8 µg/mL (≈ 13.7 µM), respectively. Moreover, the MIC90 was 8 µg/mL (≈ 13.7 µM) in the test with Enterobacteriaceae [2] and greater than 64 µg/mL in the test on Enterobacteriaceae [3].
Turning to `CC(C)(O/N=C(\C(=O)N[C@@H]1C(=O)N2C(C(=O)[O-])=C(C[n+]3ccccc3)CS[C@H]12)c1csc(N)n1)C(=O)O` [CEFTAZIDIME], the MIC50 in the test with Enterobacteriaceae [1] was determined as 1 µg/mL (≈ 1.83 µM); with Enterobacteriaceae [2] it was 0.12 µg/mL (≈ 0.22 µM); in the test on Enterobacteriaceae [3], 32 µg/mL (≈ 58.5 µM). For the same molecule, the values for the MIC90 in the test on Enterobacteriaceae [1], against Enterobacteriaceae [2] and against Enterobacteriaceae [3] were greater than 32 µg/mL, 0.5 µg/mL (≈ 0.915 µM) and greater than 32 µg/mL, respectively.
In the case of `C[C@@H](O)[C@H]1C(=O)N2C(C(=O)O)=C(S[C@@H]3CN[C@H](CNS(N)(=O)=O)C3)[C@H](C)[C@H]12` [DORIPENEM], the Activity was determined as 50% in the test on Enterobacteriaceae [4]; 83.5% in the test on Enterobacteriaceae [5]; 82.4% with Enterobacteriaceae [6]; 68.1% with Enterobacteriaceae [7]; 60% in the test with Enterobacteriaceae [8]; 74.3% in the test on Enterobacteriaceae [9]. Besides, the Activity is given as 77.3% in the test with Enterobacteriaceae [10]; 72.7% in the test with Enterobacteriaceae [11]; 73.6% in the test with Enterobacteriaceae [12]; 69.1% in the test with Enterobacteriaceae [13]; 84.4% in the test on Enterobacteriaceae [14]; 64.3% with Enterobacteriaceae [15]. The Activity amounted to 61.9% with Enterobacteriaceae [16]; 66.7% in the test with Enterobacteriaceae [17]; 83.3% in the test with Enterobacteriaceae [18]; 71.4% in the test with Enterobacteriaceae [19]; 70% in the test on Enterobacteriaceae [20]; 75% in the test on Enterobacteriaceae [21]. The Activity with Enterobacteriaceae [22] is reported as 59.6%; in the test with Enterobacteriaceae [23] it was 53.3%; in the test on Enterobacteriaceae [24], 75%; with Enterobacteriaceae [25], 82.3%. Also, the figures for the MIC50 against Enterobacteriaceae [1], in the test with Klebsiella pneumoniae and in the test on Enterobacteriaceae [3] were 0.03 µg/mL (≈ 0.0713 µM), no more than 0.03 µg/mL and 0.06 µg/mL (≈ 0.143 µM), respectively. Besides, the MIC90 against Enterobacteriaceae [1] was found to be 0.5 µg/mL (≈ 1.19 µM); in the test with Klebsiella pneumoniae, 0.12 µg/mL (≈ 0.285 µM); against Enterobacteriaceae [3], 0.25 µg/mL (≈ 0.595 µM).
For the molecule `C[C@@H](O)[C@H]1C(=O)N2C(C(=O)O)=C(S[C@@H]3CN[C@H](C(=O)Nc4cccc(C(=O)O)c4)C3)[C@H](C)[C@H]12` [ERTAPENEM], the values for the MIC50 in the test with Enterobacteriaceae [1], against Klebsiella pneumoniae and with Enterobacteriaceae [3] were no more than 0.03 µg/mL, no more than 0.03 µg/mL and 0.12 µg/mL (≈ 0.252 µM), respectively. For the same molecule, the MIC90 was 4 µg/mL (≈ 8.41 µM) with Enterobacteriaceae [1], no more than 0.03 µg/mL in the test with Klebsiella pneumoniae and 1 µg/mL (≈ 2.1 µM) with Enterobacteriaceae [3].
As to `C[C@@H](O)[C@H]1C(=O)N2C(C(=O)O)=C(SCCNC=N)C[C@H]12` [IMIPENEM ANHYDROUS], the MIC50 with Enterobacteriaceae [1], in the test on Klebsiella pneumoniae and in the test on Enterobacteriaceae [3] was 0.12 µg/mL (≈ 0.401 µM) throughout. The results for the MIC90 against Enterobacteriaceae [1], against Klebsiella pneumoniae and in the test on Enterobacteriaceae [3] were 1 µg/mL (≈ 3.34 µM), 1 µg/mL (≈ 3.34 µM) and 0.5 µg/mL (≈ 1.67 µM), respectively. Moreover, the Activity with Enterobacteriaceae [13] was 64.4%; in the test with Enterobacteriaceae [26], 83.3%; in the test on Enterobacteriaceae [15], 100%; with Enterobacteriaceae [21], 100%; in the test with Enterobacteriaceae [22] it was 61.4%.
Take `C[C@H]1COc2c(N3CCN(C)CC3)c(F)cc3c(=O)c(C(=O)O)cn1c23.C[C@H]1COc2c(N3CCN(C)CC3)c(F)cc3c(=O)c(C(=O)O)cn1c23.O` [LEVOFLOXACIN]: the Activity in the test with Enterobacteriaceae [4] stood at 14.3%; in the test on Enterobacteriaceae [5], 85.4%; in the test with Enterobacteriaceae [8], 20%; with Enterobacteriaceae [9], 75.2%; in the test with Enterobacteriaceae [23], 23.8%; in the test with Enterobacteriaceae [27], 21.9%. Moreover, the MIC50 was 16 µg/mL with Enterobacteriaceae [1], no more than 0.03 µg/mL in the test with Enterobacteriaceae [2] and 8 µg/mL with Enterobacteriaceae [3]. Besides, the values for the MIC90 in the test on Enterobacteriaceae [1], with Enterobacteriaceae [2] and against Enterobacteriaceae [3] were 64 µg/mL, 8 µg/mL and 32 µg/mL, respectively.
For `C[C@@H](O)[C@H]1C(=O)N2C(C(=O)O)=C(S[C@@H]3CN[C@H](C(=O)N(C)C)C3)[C@H](C)[C@H]12` [MEROPENEM], the Activity with Enterobacteriaceae [6] worked out at 91.7%; with Enterobacteriaceae [10], 77.9%; in the test with Enterobacteriaceae [14] it was 85%; in the test with Enterobacteriaceae [18] it was 81.3%; with Enterobacteriaceae [19] it was 100%; with Enterobacteriaceae [24], 62.5%. For the same molecule, the MIC50 in the test with Enterobacteriaceae [1] is 0.03 µg/mL (≈ 0.0782 µM); against Klebsiella pneumoniae, no more than 0.03 µg/mL; in the test with Enterobacteriaceae [3], no more than 0.03 µg/mL. Further, the MIC90 against Enterobacteriaceae [1] stood at 0.25 µg/mL (≈ 0.652 µM); with Klebsiella pneumoniae it was 0.06 µg/mL (≈ 0.156 µM); in the test on Enterobacteriaceae [3], 0.12 µg/mL (≈ 0.313 µM).

The term MIC50 denotes an inhibitory concentration at the 50% level, which refers to growth in some studies and to a panel of isolates in others. Low values mean greater potency, high ones weaker potency. What is called MIC90 is the lowest concentration that inhibits either 90% of growth or 90% of the strains tested, depending on the study. A high value points to lower susceptibility.
